# Data from patent US6960337B2, “Methods and compositions for treating benign gynecological disorders” (Balance Pharmaceuticals, Inc., priority 2002, dated 2005).
# Values joined by “and” are separate entries in the source; they are usually repeats but may differ in a detail not shown here. Equal values may be shown once. Read-outs that look alike come from different tables or passages of the source.
# How the values were obtained:
# [1] = tested on: premenopausal women with uterine leiomyomata; assay: Uterine size (uterine volume calculated from ultrasound dimensions), Example 2; type: in vivo, human
# Description: (§1) A 12 week study was performed to establish an effective dose of deslorelin for controlling heavy bleeding secondary to uterine leiomyomata. Forty-one women completed the study and are identified as Subject Nos. 1-41. The women were divided into test groups for treatment with intranasal deslorelin as follows:
# (§2) An intranasal preparation consisting of deslorelin at the indicated concentration along with sorbitol (61.6 mg/mL), benzalkonium chloride (0.1 mg/mL), and water was prepared according to the procedure of Example 1. The preparation was administered with a commercially available nasal sprayer that delivered a 50 μL spray volume. The preparation was administered by application of 50 μL to each nostril once per day, for a total daily spray volume of 100 μL to give the indicated dose of deslorelin.
# (§3) The average age of the premenopausal patients was 42.3, with similar distribution among groups. For one complete menstrual cycle prior to treatment, each woman completed a daily bleeding calendar. Eligible subjects were then treated with deslorelin at the assigned dosage once per day by intranasal application. During the 12 weeks of daily intranasal administration, each woman kept a daily bleeding calendar, completed quality of life questionnaires, and underwent clinical assessment and laboratory testing. The subjects were tracked for 6 weeks post-treatment for further assessment and to document time to recovery of menses after last drug treatment day. Clinical assessments included grading of nasal irritation (Table 3A), determination of uterine size (Table 3B), and serum hormone levels (Table 3C).
# [2] = tested on: heavy bleeding secondary to uterine leiomyomata; assay: Bleeding score from daily bleeding calendar (sum of 28 day diary entries; 0 no bleeding, 5 normal flow, 10 or greater menorrhagia), Example 2; type: in vivo, human
# Description: as §1, §2, §3
# [3] = tested on: ovarian suppression (serum estradiol and progesterone levels); type: in vivo, human; settings: for Hormone Levels: Progesterone: daily, individual subjects
# Description: Example 4 describes a study performed in support of the invention where the nasal preparation is similar to that of Example 1, comprised of a GnRH compound, estradiol, and testosterone, was administered to healthy, premenopausal women. Three doses of the GnRH compound deslorelin were tested, 0.5 mg, 1.0 mg, and 2.0 mg. The nasal preparation was administered using a conventional metered nasal spray delivery device. The subjects received two 50 μL sprays, one in each nostril, daily for four weeks. Blood samples were collected prior to drug administration on day 1 of the study, and then at regular intervals throughout day 1. Thereafter, blood samples were collected weekly, until day 29, when blood was collected at scheduled intervals throughout the day. Serum deslorelin, estradiol, testosterone, and progesterone were quantified, and the results are shown in Tables 4A through 4C, below in Example 4.
# Nine premenopausal women, ages 20 to 45 years, were recruited and randomly divided into three test groups for a 29 day study. […] The single intranasal administration consisted of a 100 μL dose delivered using a metered nasal spray device as two 50 μL sprays, one in each nostril.
# An indwelling intravenous catheter was inserted in an arm vein for withdrawal of blood samples prior to drug administration and at defined intervals post administration (study day 1) of 40, 120, 240, and 480 minutes. Thereafter, weekly blood samples (study days 8, 15, and 22) were collected for determination of serum estradiol, progesterone, testosterone, and deslorelin levels. On study day 29 post administration, blood samples were drawn according to the same regimen on study day 1. After collection, all blood samples were allowed to clot at room temperature, then refrigerated. Within 24 hours of collection, serum was separated and stored frozen at −5° C. until assayed.
# Serum levels of estradiol, testosterone, and progesterone were quantitated by sensitive and specific radioimmunoassay methods (Stanczyk, F. Z. et al., Am. J Obstet. Gynecol., 159(6):1540 (1988); Scott et al., Am. J Obstet. Gynecol., 130(7):817 (1978)). Prior to assay of the steroid hormones, serum was extracted with ethyl acetate:hexane (1:1) and for the testosterone assay further purified via Celite™ column chromatography, with 40% toluene to elute the testosterone. Procedural losses were followed by addition of 1000 dpm of the appropriate tritiated internal standard. The sensitivities of the estradiol, testosterone, and progesterone assays were 8 pg/mL, 4 ng/dL, and 10 ng/dL, respectively. […] Intra- and inter-assay coefficients of variation were 5% to 10% and 10% to 15%, respectively. Specificity of the assays was enhanced by eliminating interfering metabolites with extraction and/or chromatography and through the use of highly specific antisera.
# [4] = tested on: ovarian estrogen and progesterone production; assay: Serum hormone levels, 12 week intranasal deslorelin study (Example 2); type: in vivo, human
# Description: Testosterone levels are also similar.
# as §1, §2, §3
# [5] = cited from earlier work
# [6] = 0.5 mg/day intranasal, Baseline
# [7] = 0.5 mg/day intranasal, End of Week 4
# [8] = 0.5 mg/day intranasal, End of Week 8
# [9] = 0.5 mg/day intranasal, End of Week 12
# [10] = 1 mg/day intranasal, End of Week 4
# [11] = 1 mg/day intranasal, End of Week 8
# [12] = 1 mg/day intranasal, End of Week 12
# [13] = 2 mg/day intranasal, End of Week 4
# [14] = 2 mg/day intranasal, End of Week 8
# [15] = 2 mg/day intranasal, End of Week 12
# [16] = 0.5-2.0 mg daily intranasal over the 12 week period
compound,measurement,setting,value
"CCNC(=O)[C@@H]1CCCN1C(=O)[C@H](CCCN=C(N)N)NC(=O)[C@H](CC(C)C)NC(=O)[C@@H](Cc1c[nH]c2ccccc12)NC(=O)[C@H](Cc1ccc(O)cc1)NC(=O)[C@H](CO)NC(=O)[C@H](Cc1c[nH]c2ccccc12)NC(=O)[C@H](Cc1cnc[nH]1)NC(=O)[C@@H]1CCC(=O)N1 [deslorelin, (pyro)Pro-His-Trp-Ser-Tyr-DTrp-Leu-Arg-Pro-ethylamide]","Uterine Size, Mean Difference (end of week 12 minus baseline uterine volume)",[1]; 0.5 mg/day intranasal,−109.6 cm^3
same,"Uterine Size, Mean Difference (end of week 12 minus baseline uterine volume)",[1]; 1 mg/day intranasal,−63.6 cm^3
same,"Uterine Size, Mean Difference (end of week 12 minus baseline uterine volume)",[1]; 2 mg/day intranasal,−246.5 cm^3
same,uterine volume (summary in words),"[1]; 0.5, 1.0, 2.0 mg daily intranasal, 12 weeks, said to correlate directly with dose",reduction in uterine volume
same,Bleeding Score,"[2]; 0.5 mg/day intranasal, Baseline Score",10.9
same,Bleeding Score,"[2]; 0.5 mg/day intranasal, Weeks 1-4",6.6
same,Bleeding Score,"[2]; 0.5 mg/day intranasal, Weeks 5-8",3.5
same,Bleeding Score,"[2]; 0.5 mg/day intranasal, Weeks 9-12",2.6
same,Bleeding Score,"[2]; 1 mg/day intranasal, Baseline Score",10.8
same,Bleeding Score,"[2]; 1 mg/day intranasal, Weeks 1-4",7.8
same,Bleeding Score,"[2]; 1 mg/day intranasal, Weeks 5-8",0.4
same,Bleeding Score,"[2]; 1 mg/day intranasal, Weeks 9-12",1.7
same,Bleeding Score,"[2]; 2 mg/day intranasal, Baseline Score",14.1
same,Bleeding Score,"[2]; 2 mg/day intranasal, Weeks 1-4",6.6
same,Bleeding Score,"[2]; 2 mg/day intranasal, Weeks 5-8",1.2
same,Bleeding Score,"[2]; 2 mg/day intranasal, Weeks 9-12",0.6
same,"effectiveness (reduction of bleeding and uterine size), in words","[2]; all tested doses (0.5, 1.0, 2.0 mg)",partially or completely effective
same,bleeding score (summary in words),[2]; end of the three month study,marked improvement
same,Hormone Levels: Progesterone,"[3]; 0.5 mg/mL Deslorelin nasal preparation with estradiol and testosterone, Study Day 1, 0 min",100 ng/dL and 90 ng/dL and 110 ng/dL
same,Hormone Levels: Progesterone,"[3]; 0.5 mg/mL Deslorelin nasal preparation with estradiol and testosterone, Study Day 8",90 ng/dL and 50 ng/dL and 110 ng/dL
same,Hormone Levels: Progesterone,"[3]; 0.5 mg/mL Deslorelin nasal preparation with estradiol and testosterone, Study Day 15",100 ng/dL and 40 ng/dL
same,Hormone Levels: Progesterone,"[3]; 0.5 mg/mL Deslorelin nasal preparation with estradiol and testosterone, Study Day 22",40 ng/dL (2×) and 50 ng/dL
same,Hormone Levels: Progesterone,"[3]; 0.5 mg/mL Deslorelin nasal preparation with estradiol and testosterone, Study Day 29, 0 min",100 ng/dL and 60 ng/dL and 70 ng/dL
same,Hormone Levels: Progesterone,"[3]; 1.0 mg/mL Deslorelin nasal preparation with estradiol and testosterone, Study Day 8",50 ng/dL (2×) and 80 ng/dL
same,Hormone Levels: Progesterone,"[3]; 1.0 mg/mL Deslorelin nasal preparation with estradiol and testosterone, Study Day 15",50 ng/dL and 30 ng/dL and 70 ng/dL
same,Hormone Levels: Progesterone,"[3]; 1.0 mg/mL Deslorelin nasal preparation with estradiol and testosterone, Study Day 22",50 ng/dL (2×) and 60 ng/dL
same,Hormone Levels: Progesterone,"[3]; 1.0 mg/mL Deslorelin nasal preparation with estradiol and testosterone, Study Day 29, 0 min",60 ng/dL and 40 ng/dL and 100 ng/dL
same,Hormone Levels: Progesterone,"[3]; 2.0 mg/mL Deslorelin nasal preparation with estradiol and testosterone, Study Day 1, 0 min",80 ng/dL and 30 ng/dL and 90 ng/dL
same,Hormone Levels: Progesterone,"[3]; 2.0 mg/mL Deslorelin nasal preparation with estradiol and testosterone, Study Day 8",50 ng/dL (2×) and 20 ng/dL
same,Progesterone levels during the treatment interval,"[3]; all three deslorelin doses, generally, indicating that women were anovulatory",less than 80 ng/dL
same,Serum levels of estradiol on day 29,[3]; in vivo,14 to 103 pg/mL
same,Hormone Levels: Estradiol,[4]; [6],173 pg/mL
same,Hormone Levels: Progesterone,[4]; [6],641 ng/dL
same,Hormone Levels: Testosterone,[4]; [6],24 ng/dL
same,Hormone Levels: Estradiol,[4]; [7],47 pg/mL
same,Hormone Levels: Progesterone,[4]; [7],40 ng/dL
same,Hormone Levels: Testosterone,[4]; [7],19 ng/dL
same,Hormone Levels: Estradiol,[4]; [8],79 pg/mL
same,Hormone Levels: Progesterone,[4]; [8],30 ng/dL
same,Hormone Levels: Testosterone,[4]; [8],22 ng/dL
same,Hormone Levels: Estradiol,[4]; [9],66 pg/mL
same,Hormone Levels: Progesterone,[4]; [9],37 ng/dL
same,Hormone Levels: Testosterone,[4]; [9],23 ng/dL
same,Hormone Levels: Estradiol,"[4]; 1 mg/day intranasal, Baseline",123 pg/mL
same,Hormone Levels: Progesterone,"[4]; 1 mg/day intranasal, Baseline",480 ng/dL
same,Hormone Levels: Testosterone,"[4]; 1 mg/day intranasal, Baseline",26 ng/dL
same,Hormone Levels: Estradiol,[4]; [10],51 pg/mL
same,Hormone Levels: Progesterone,[4]; [10],12 ng/dL
same,Hormone Levels: Testosterone,[4]; [10],22 ng/dL
same,Hormone Levels: Estradiol,[4]; [11],95 pg/mL
same,Hormone Levels: Progesterone,[4]; [11],25 ng/dL
same,Hormone Levels: Testosterone,[4]; [11],20 ng/dL
same,Hormone Levels: Estradiol,[4]; [12],30 pg/mL
same,Hormone Levels: Progesterone,[4]; [12],10 ng/dL
same,Hormone Levels: Testosterone,[4]; [12],16 ng/dL
same,Hormone Levels: Estradiol,"[4]; 2 mg/day intranasal, Baseline",184 pg/mL
same,Hormone Levels: Progesterone,"[4]; 2 mg/day intranasal, Baseline",337 ng/dL
same,Hormone Levels: Testosterone,"[4]; 2 mg/day intranasal, Baseline",34 ng/dL
same,Hormone Levels: Estradiol,[4]; [13],14 pg/mL
same,Hormone Levels: Progesterone,[4]; [13],12 ng/dL
same,Hormone Levels: Testosterone,[4]; [13],16 ng/dL
same,Hormone Levels: Estradiol,[4]; [14],31 pg/mL
same,Hormone Levels: Progesterone,[4]; [14],14 ng/dL
same,Hormone Levels: Testosterone,[4]; [14],20 ng/dL
same,Hormone Levels: Estradiol,[4]; [15],30 pg/mL
same,Hormone Levels: Progesterone,[4]; [15],13 ng/dL
same,Hormone Levels: Testosterone,[4]; [15],20 ng/dL
same,reduction in serum estradiol levels (summary in words),[4]; [16],progressive and dose dependent
same,serum progesterone levels (summary in words),[4]; [16],progressive suppression with higher dose and longer time
OC[C@H]1O[C@@H]2O[C@H]3[C@H](O)[C@@H](O)[C@@H](O[C@H]4[C@H](O)[C@@H](O)[C@@H](O[C@H]5[C@H](O)[C@@H](O)[C@@H](O[C@H]6[C@H](O)[C@@H](O)[C@@H](O[C@H]7[C@H](O)[C@@H](O)[C@@H](O[C@H]8[C@H](O)[C@@H](O)[C@@H](O[C@H]9[C@H](O)[C@@H](O)[C@@H](O[C@H]%10[C@H](O)[C@@H](O)[C@@H](O[C@H]1[C@H](O)[C@H]2O)O[C@@H]%10CO)O[C@@H]9CO)O[C@@H]8CO)O[C@@H]7CO)O[C@@H]6CO)O[C@@H]5CO)O[C@@H]4CO)O[C@@H]3CO [δ-cyclodextrin],"water solubility (at 25° C., g/100 mL)",[5],8.19 g/100 mL
